According to patent US20080139463A1, “Use Of [D-Meala]3-[Etval]4-Cyclosporin For The Treatment Of Hepatitis C Infection And Pharmaceutical Composition Comprising Said [D-Meala]3-[Etval]4-Cyclosporin” (priority 2005, published 2008):
Converted amounts (≈) assume the structure as drawn.

Key:
[1] = system: HCV replicon in MH-14 cells; conditions: cited from earlier work; for HCV RNA accumulation inhibited: Northern blot and quantitative RT-PCR, MH-14 cells
[2] = system: HCV replicon in Huh-9-13 cells; test: HCV replicon clearance and rebound in Huh-9-13 cells; format: cell-based; conditions: 0.5 or 1 μg/ml for 7 consecutive passages, then G418 1000 μg/ml for 2 passages; FIG. 3
Procedure: Assays used Huh-9-13 cells, human hepatoma cells (Huh-7) (Lohmann et al., Science 285(5424), (1999), 110-113) Cells were grown in the usual complete medium DMEM without G418 pressure.
RT-PCR were performed on extracts of viral RNA of samples taken at different passage points. The forward and reverse primers used were 5′-[sequence]-3′ and 5′-[sequence]-3′, respectively. The fluorogenic probe was 5′-[sequence]-3′. As an internal control, a plasmid containing part of the neomycin phosphotransferase gene sequence was used. Results were analysed and expressed as a quantity of replicon RNA (ng) per 1'000 cells and used to draft a graph.

[3] = target: T1, human recombinant cyclophilin A (Homo sapiens, UniProt P62937); test: PPlase activity of cyclophilin A, tight binding inhibitor fit (Garcia-Echverria et al.); format: biochemical; conditions: for Et (total enzyme concentration): fit parameter of tight binding equation
T1 construct: purchased Sigma
T1 sequence (P62937 whole entry): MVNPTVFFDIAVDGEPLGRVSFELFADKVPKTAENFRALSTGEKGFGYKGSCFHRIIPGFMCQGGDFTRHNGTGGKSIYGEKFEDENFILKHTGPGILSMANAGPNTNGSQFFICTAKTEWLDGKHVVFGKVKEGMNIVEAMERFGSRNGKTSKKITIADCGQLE
Procedure: Commercial human recombinant cyclophilin A (Sigma) was used in the assays. PPlase activity of cyclophilins was determined using a chymotrypsin-coupled spectrophotometric assay according to Garcia-Echverria et al. (BBRC, 191, (1993), 70-75). This method is based on the high trans selectivity of chymotrypsin for peptides of the type N-succinyl-ala-ala-pro-phe-p-nitroanilide. The peptides cleavage liberated the para-nitroaniline moiety that could be detected and quantitated at 390 nm. The hydrolysis of the cis form was limited by the rate of cis-trans isomerisation carried out by cyclophilin A. The peptide was made up in a solution of […] LiCl in 2,2,2-trifluoroethanol at 470 mM to enhance the cis conformer peptides population. The assay was performed on the split beam spectrophotometer and the water bath was set at 5° C. Cyclophilin A (7500 pmol/mg total enzyme concentration; Sigma) were dissolved at 20 nM in a buffer (35 mM HEPES and 0.26 mg/ml chymotrypsin (specific activity 50 units/mg), pH 7.8 with KOH) and were incubated for 6 minutes at room temperature followed by 54 minutes in the water bath. […] Then 3.5 ml of the incubated cyclophilin was added to the sample cuvette. […] Peptide was added at 25 μM to initiate the reaction and the change in absorbance was monitored at 10 data points per second. As a control, rates were also determined for a parallel reaction that lacked cyclophilin. These blank rates of peptide hydrolysis (i.e. in the absence of cyclophilin) were subtracted from rates in the presence of cyclophilin A.
The initial rates obtained from the PPlase assays were analysed by first order regression analysis by using first order transformation of the traces of the time course of the change in the absorbance at 390 nm. Total enzyme concentration (Et), the inhibitor dissociation constant (Ki) and the rate constant for the rate limiting reaction was calculated with the software FigSyS (2003, Biosoft) by fitting the data obtained from the regression analysis in the tight binding inhibitor multiprotein equation.
v=k*Et*P−k*(−b−sqrt(b*b−4*c))/2
where b is defined as b=−(Et*P+I+Ki) and c is c=Et*P*I. Once Et, Ki and k were calculated by the computer for a given set of data, a graphic representation of the data was plotted and the line fitted to the points assuming tight inhibitor binding to a single protein, defined by the following equations:
v=K*Et*P−K(B−sqrt(B*B−4*C))/2
where B=Et*P+I+Ki and C=Et*P*I.

[4] = MTT assay of cytostatic/cytotoxic effect in Huh 5-2 cells; conditions: human
From the text: Cell density and cytostatic effects were estimated in parallel cultures in regular 96-well plates (Beckton-Dickinson) using the MTT assay (CellTiter 96® AQueous Non-Radioactive Cell Proliferation Assay, Promega). In this assay, 3-(4,5-dimethylthiazol-2-yl)-5-(3-carboxymethoxy-phenyl)-2-(4-sulfophenyl)-2H-tetrazolium (MTS) is bioreduced to a formazan that is quantitated at 498 nm in a plate reader. Formazan production is directly correlated with number of life cells.
(§1) Results from these experiments permitted calculation of EC50 for the different cyclosporins, which is the effective concentration required to inhibit HCV replicon replication by 50%, and of CC50, which is the concentration required that inhibits the proliferation of exponentially growing cells by 50%, and a selectivity index SI, which is the ratio between CC50 and EC50.

CD4^+ PBMCs = test: Mixed lymphocyte reaction, [3H]-thymidine incorporation; format: cell-based; conditions: for immunosuppressive activity (interpretation of Table 2): mixed lymphocyte reaction; for % Stimulation (relative): cyclosporin 1 μg/ml, five days
Procedure: In this assay, cyclosporins were dissolved in ethanol (10 mg/ml). Freshly isolated CD4^+ PBMCs from two healthy donors were mixed subsequent to inactivation by irradiation of one of the populations (stimulator cells; S). […] R) was determined by [^3H]-thymidine incorporation. The assay was conducted reciprocally with the two cell populations, each being inactivated and stimulated in turn. Stimulation (%) of responder cells was calculated by the formula: […] Sample refers to a mixture of stimulator and responder cells. Background represents a control in which only stimulator cells are mixed.

[5] = Initial phase I clinical studies, safety of oral doses; format: in vivo; conditions: oral doses of 50 to 1600 mg; not dose-related
Procedure: Initial phase I clinical studies were carried out to assess the safety of oral doses of [D-MeAla]^3-[EtVal]^4-CsA, and to determine the pharmacokinetic profile and safety profile of the drug substance. […] These side effects were not dose-related.

[6] = system: Jc1-Luc virus (full-length chimeric genome between HCV strains J6 and JFH1); test: Antiviral luciferase assay in hepatoma cells infected with recombinant HCV; format: cell-based; conditions: infected Huh-7-Lunet and Huh-7.5 cells, 72 hours, FIGS. 1 and 2
From the text: The method used hepatoma cells that had been infected with an infectious full length chimeric HCV construct or the same virus that was modified to carry a luciferase receptor gene.
Infectious HCV viruses of full-length chimeric genome between HCV strains J6 and JFH1 (Jc1) were used to inoculate the hepatoma cells of the assays. The construct of Jc1 virus was also modified to obtain a bicistronic genome carrying a luciferase reporter gene (Jc1-Luc).
Assays used either Huh-7-Lunet or Huh-7.5 cells (Lohmann et al., Science 285(5424), (1999), 110-113). Cells were grown in Dulbecco's modified Eagle's Medium (DMEM; Gibco) supplemented with 10% heat-inactivated fetal bovine serum (FCS) (Integro), 1× non-essential amino acids (Gibco), 100 IU/ml penicillin (Gibco), 100 μg/ml streptomycin (Gibco) or 25 μg/ml hygromycin (Gibco) for Huh-mono cells at 37° C. and 5% CO2. For antiviral (replication) assays, Huh-7-Lunet and Huh-7.5 cells were seeded at a density of 2×104 or 4×10^4 cells per well of a 12-well plate. […]
The inhibition of viral replication were estimated by luciferase assay. […] Firefly luciferase activity was measured according to Krieger et al. (J Virol, 75(10), (2001), 4614-4624). […] Finally, luminescence was measured by using a Lumat LB9507 luminometer (Berthold) for 20 samples.

[7] = system: luciferase-containing HCV minireplicon in Huh 5-2 cells
Procedure: (§2) Assays used Huh 5-2 cells that contained a bicistronic RNA encoding a firefly luciferase-ubiquitin-neomycin phosphotransferase fusion protein and HCV proteins NS3-5. The viral sequences originated from an HCV virus of genotype 1b. Cells were cultured in RPMI 1640 medium (Gibco) supplemented with 10% fetal calf serum, 2 mM glutamine (Life Technologies), 1× non-essential amino acids (Life Technologies), 100 u/ml penicillin, 100 μg/ml streptomycin and 250 μg/ml G418 (Geneticin, Life Technologies) at 37° C. and 5% CO2. For antiviral (replication) assays, cells were seeded at a density of 7000 cells/well in 96-well View Plates™ (Packard) in the same medium except for G418. After a 24-h incubation, medium was removed, serial dilutions of test compounds in medium were added, and cells were incubated for an additional 72 h.
Antiviral effects were estimated either by luciferase assay or quantitative RT-PCR. To carry out luciferase assays, medium was removed, and cells were washed with PBS. Subsequent to lysis in 50 μl of Glo-lysis buffer (Promega) for 15 min, 50 μl of Stead-Glo Luciferase Assay Reagent (Promega) were added to cell lysates. Luciferase activity was measured using a luminometer, and the signal from each test well was expressed as a percentage of the signal measured in wells of cultures not exposed to a test compound. […]

[8] = system: HCV replicon in Huh 5-2 cells; conditions: EC50 derived from RNA titers by quantitative RT-PCR; asterisk = lower of two independently determined values
Procedure: as §2
The fluorogenic probe was 5′-[…]-3′.
as §1

Compound	HCV RNA accumulation inhibited [1]	outcome of treated cultures in the presence of G418 (rebound phase) [2]	k (rate constant for the rate limiting reaction) ([3]; cyclophilin A)	Et (total enzyme concentration) [3]	CC50 ([4]; Huh 5-2 cells)	immunosuppressive activity (interpretation of Table 2) (CD4^+ PBMCs)	side effects [5]	antiviral activity [6]	Ki ([3]; cyclophilin A, inhibitor 2-50 nM)	EC50 (μg/ml) +/− Std. Dev. ([7]; luciferase assay, Huh 5-2 cells, 72 h)	Selectivity index ([7]; ratio between CC50 and EC50, luciferase and MTT assays)	CC50 [4]	% Stimulation (relative) (CD4^+ PBMCs; co-culture R1 × S2)	% Stimulation (relative) (CD4^+ PBMCs; co-culture R2 × S1)	SI values [8]	effectiveness in reducing HCV RNA titer ([1]; compared with CsA)	HCV RNA titer reduction ([1]; 1 μg/ml, 7-day exposure)
C/C=C/C[C@@H](C)C(=O)[C@H]1C(=O)N[C@@H](C(C)C)C(=O)N(C)CC(=O)N(C)[C@@H](CC(C)C)C(=O)N[C@@H](C(C)C)C(=O)N(C)[C@@H](CC(C)C)C(=O)N[C@@H](C)C(=O)N[C@H](C)C(=O)N(C)[C@@H](CC(C)C)C(=O)N(C)[C@@H](CC(C)C)C(=O)N(C)[C@@H](C(C)C)C(=O)N1C [PSC 833]	not	–	–	–	–	–	–	–	–	–	–	–	–	–	–	–	–
C/C=C/C[C@@H](C)[C@@H](O)[C@H]1C(=O)N[C@@H](CC)C(=O)N(C)[C@H](C)C(=O)N(CC)[C@@H](C(C)C)C(=O)N[C@@H](C(C)C)C(=O)N(C)[C@@H](CC(C)C)C(=O)N[C@@H](C)C(=O)N[C@H](C)C(=O)N(C)[C@@H](CC(C)C)C(=O)N(C)[C@@H](CC(C)C)C(=O)N(C)[C@@H](C(C)C)C(=O)N1C [[D-MeAla]^3-[EtVal]^4-CsA]	–	the cultures died	0.16 ± 0.0074 s⁻¹	7500 pmol/mg	> 27 µg/mL	essentially devoid of immunosuppressive activity	Mild and short-lived side effects were observed including nausea, vomiting, abdominal pain, mild headaches	dose-dependent antiviral activity	–	–	–	–	–	–	–	–	–
C/C=C/C[C@@H](C)[C@@H](O)[C@H]1C(=O)N[C@@H](CC)C(=O)N(C)CC(=O)N(C)[C@@H]([C@@H](C)CC)C(=O)N[C@@H](C(C)C)C(=O)N(C)[C@@H](CC(C)C)C(=O)N[C@@H](C)C(=O)N[C@H](C)C(=O)N(C)[C@@H](CC(C)C)C(=O)N(C)[C@@H](CC(C)C)C(=O)N(C)[C@@H](C(C)C)C(=O)N1C [[MeIle]^4-CsA]	–	–	0.17 ± 0.0068 s⁻¹	7500 pmol/mg	–	essentially devoid of immunosuppressive activity	–	–	2.11 ± 0.32 nM	0.22 µg/mL (≈ 0.183 µM)	64	14 µg/mL (≈ 11.6 µM)	84%	75%	73	about equally as effective as CsA	–
Cyclosporin A [CsA]	inhibited	–	0.17 ± 0.0069 s⁻¹	7500 pmol/mg	–	–	–	dose-dependent antiviral activity	–	–	–	–	–	–	–	–	about 200 fold
